The values below come from paper PMC11621109, “Increasing sustainability and reproducibility of in vitro toxicology applications: serum-free cultivation of HepG2 cells” (Frontiers in Toxicology, 2024).

*1 amine or outer side, *2 acyl side, *3 side chain or, on linkers, in order; H or OH if unused. Where a SMILES comes first, the peptide text is derived from it. Bridges are numbered along the chain shown (N, C = ends). Roman numbers before positions name the chains, in order. [ ]: non-standard residue; d: D form. Actinocin(9to1) = Cc1c2oc3c(C)ccc(C(=O)[*:1])c3nc-2c(C(=O)[*:2])c(N)c1=O; NMeV = CN[C@H](C(=O)O)C(C)C; Sar = CNCC(=O)O

What all share (format): cell-based, human
Data set [1] deals with LC3B (autophagy marker). Description: Cellular fingerprint assay (Luminex): LC3B. Particulars: 24 h. As to the method:
(§1) To measure intracellular drug response markers, HepG2 cells cultivated in standard medium containing FBS, Advanced DMEM/F12 or TCM® Serum Replacement were seeded in 384-well plates and incubated for 24 h. After incubation, cells were treated with selected MIP-DILI compounds or negative controls in a three-fold dilution series performed in triplicates using the Tecan 300e Dispenser ([Dragovic et al., 2016]). Additionally, cells were treated with assay specific control substances (see Supplementary Table S2). Treatment was performed for 24 h. After treatment, media was carefully aspirated und cells were lysed by adding 40 µL lysis buffer (Supplementary Table S3) to each well. The plates were incubated for 30 min at 4°C and either stored at −80°C or used immediately.
(§2) Intracellular drug response markers were assessed using the Luminex technology. Color-coded beads from NMI specific for one analyte each were used to qualify and quantify p-serin 10 of Histon H3 (cell division marker), LC3B (autophagy marker), PARP (cell death/apoptosis marker), HSP70 (stress response marker), p-serin 2/5 of RNA-Polymerase II (protein transcription marker), p-serin 422 of EIF4B (protein synthesis marker) and HIF1-alpha (oxidative stress marker).
(§3) For hybridization, 25 μL cell lysate of each sample was transferred to a fresh 384-well plate. […]

The subject of data set [2] is HSP70 (stress response marker). Description: Cellular fingerprint assay (Luminex): HSP70. The note with it: 24 h. As to the method: as §1, §2
(§4) For hybridization, 25 μL cell lysate of each sample was transferred to a fresh 384-well plate. 25 μL prepared bead mix and 25 µL assay buffer were added and the plate was sealed. Plates were incubated for 16–20 h at 4°C and 600 rpm. The TS Pro thermal plate shaker from CellMedia was used for all incubation steps.
(§5) After incubation the plates were washed and successively incubated with 15 µL detection antibody (1 h, RT, 650 rpm) and 15 µL streptavidin, R-phycoerythrin conjugate (SAPE; 45 min, RT, 650 rpm). After each step, the plates were washed three times with wash buffer. Before measurement, 90 µL assay buffer was added to each well and the plates were incubated for 10 min at RT and 700 rpm. Measurement was performed using the Luminex™ FlexMAP 3D from ThermoFisher.

Data set [3] concerns PARP (cell death/apoptosis marker). Nature of the data set: Cellular fingerprint assay (Luminex): PARP. Particulars: 24 h. As to the method:
as §1, §2, §4, §5

Data set [4] deals with p-serin 2/5 of RNA-Polymerase II. Description: Cellular fingerprint assay (Luminex): RNA Pol II. Particulars: 24 h. As to the method: as §1, §2, §4, §5
Data set [5] deals with p-serin 422 of EIF4B. Description: Cellular fingerprint assay (Luminex): EIF4B. The note with it: 24 h; all culture conditions (amiodarone: highest concentration). As to the method: as §1, §2, §3
Data set [6] deals with GSH content of HepG2 cells. Nature of the data set: GSH-Glo glutathione assay (oxidative stress). Particulars: 24 h. The method, then: To assess oxidative stress in cells in response to compound treatment, the GSH-Glo™ Glutathione Assay from Promega was used according to manufacturer’s instructions (V6912). HepG2 cells cultivated in standard medium containing FBS, Advanced DMEM/F12 or TCM® Serum Replacement were seeded in 384-well plates, incubated for 24 h, and subsequently treated with the MIP-DILI reference compounds, negative controls, or internal controls in a three-fold dilution series performed in triplicates using the Tecan 300e Dispenser ([Dragovic et al., 2016]). Treatment was performed for 24 h.
Assay reagents and plates were first equilibrated to room temperature. GSH-Glo™ Reagent 1x was obtained by diluting Luciferin-NT substrate and Glutathione S-Transferase 1:100 in GSH-Glo™ Reaction Buffer. Luciferin Detection reagent was dissolved in Reconstitution Buffer with Esterase.
The medium was aspirated, GSH-Glo™ Reagent 1x was added to the cells and plates were shaken for 2 min and subsequently incubated for 30 min at room temperature protected from light. Afterwards, reconstituted Luciferin Detection Reagent was added, and cells were again shaken for 2 min before incubation for 15 min at room temperature in the dark. Luminescence was measured using the Varioskan Plate Reader from Thermo Fisher.

For data set [7], the system named is HepG2 cells. Description: Cellular fingerprint assay: overall marker response / cell death. The note with it: 24 h. The method, then: as §1, §2, §3
In data set [8] the test system is HepG2 cells. Description: Mitochondrial toxicity assay (Glucose/Galactose assay). Particulars: HepG2 cultured in Advanced DMEM/F12; 2 h treatment. As to the method:
To assess mitochondrial toxicity, the Glucose/Galactose Assay was used. HepG2 cells cultivated in standard medium containing FBS, Advanced DMEM/F12 or TCM® Serum Replacement were seeded in 384-well plates and incubated for 48 h. Cells were washed once, and subsequently switched to DMEM (ThermoFisher, 11966025) supplemented with sodium pyruvate, HEPES and either 25 mM D-glucose or 10 mM D-galactose without FBS to avoid residual glucose. Cells were pre-incubated for 4 h before treatment with the MIP-DILI reference compounds, negative controls or internal controls ([Dragovic et al., 2016]). Treatment was performed in a three-fold dilution series in triplicates using the Tecan 300e Dispenser. Cells were treated for 2 h, and the read-out was performed by measuring cell viability using the CellTiter-Glo® reagent as described previously. IC50 values were obtained from dose response curves in GraphPad Prism using a log(inhibitor) vs. response model (variable slope, four parameters, bottom constraint = 0). Mitochondrial toxicity was assessed by calculating the IC50Glc/IC50Gal ratio and the threshold for risk for mitochondrial toxicity was set at >2.

For data set [9], the system named is HIF1-alpha (oxidative stress marker). Description: Cellular fingerprint assay (Luminex): HIF-1-alpha. The note with it: 24 h. The method, then: as §1, §2, §4, §5
The mark [10] stands for this setting: highest concentration, across all media.
[11] abbreviates: all culture conditions (amiodarone: highest concentration).
Setting [12] is: comparable results for all culture conditions.

As to `CCCCc1oc2ccccc2c1C(=O)c1cc(I)c(OCCN(CC)CC)c(I)c1` [Amiodarone], in data set [1] (second highest concentration, similar in all conditions), the LC3B levels entry is recorded as “elevated LC3B levels”. Besides, the HSP70 levels result in data set [2] (setting [10]) was “decrease”. In addition, in [3] (setting [10]), the PARP levels result is recorded as “elevated PARP levels”. Further, in [4] (setting [11]), the “RNA Pol II levels” value was “decrease”. In addition, the EIF4B levels result in data set [5] is recorded as “decrease”.
`O=C1CC2(CCCC2)CC(=O)N1CCCCN1CCN(c2ncccn2)CC1` [Buspirone]: in data set [6] (setting [12]), the “changes in GSH” value is reported as “viability dependent changes in GSH”.
On to `CCCCS(=N)(=O)CCC(N)C(=O)O` (stereo not shown) [Buthionine sulfoximine (BSO), Buthionine sulfoximine], for which the “changes in GSH” value in data set [6] (independently from viability, less profound in serum-free media) is on record as “strong decrease in GSH”.
Turning to `O=C(O)Cc1ccccc1Nc1c(Cl)cccc1Cl` [Diclofenac], the “changes in GSH” value in [6] (setting [12]) is recorded as “viability dependent changes in GSH”.
With `CN(C)C(=N)N=C(N)N` [Metformin], in [4] (highest concentration tested, Advanced DMEM/F12), the “RNA Pol II levels” value is listed as “slight decrease”. Besides, the “elevation of intracellular drug response markers” value in [7] (all seven markers) is “did not result in elevated markers”.
`CCc1nn(CCCN2CCN(c3cccc(Cl)c3)CC2)c(=O)n1CCOc1ccccc1` [Nefazodone]: the “changes in GSH” value in data set [6] (setting [12]) is listed as “viability dependent changes in GSH”.
For the compound `CC(=O)O[C@H]1C(=O)[C@@]2(C)[C@H]([C@H](OC(=O)c3ccccc3)[C@]3(O)C[C@H](OC(=O)[C@H](O)[C@@H](NC(=O)c4ccccc4)c4ccccc4)C(C)=C1C3(C)C)[C@]1(OC(C)=O)CO[C@@H]1C[C@@H]2O` [Paclitaxel], in [6] (at high concentrations, increase significantly lower in both serum-free media), the “changes in GSH” value was “increase in GSH”.
As to `C1CCC(C(CC2CCCCN2)C2CCCCC2)CC1` (stereo not shown) [Perhexiline], the “changes in GSH” value in data set [6] (setting [12]) is given as “viability dependent changes in GSH”. For the same compound, the “mitochondrial toxicity call (IC50Glc/IC50Gal fold change vs two-fold threshold)” value in data set [8] is listed as “identified as a potential mitochondrial toxin”. Further, in data set [3] (Advanced DMEM/F12 only), the PARP level result was “significant increase in PARP”. The “concentrations at which cell death occurred” value in data set [7] (multiple markers drastically reduced or below detection limit) is listed as at least 16.7 µM.
With `C/C=C(/C)C(=O)O[C@H]1C(C)=C2[C@H]([C@@H]1OC(=O)CCCCCCC)[C@@](C)(OC(C)=O)C[C@H](OC(=O)CCC)[C@@]1(O)[C@H]2OC(=O)[C@@]1(C)O` [Thapsigargin], in [6] (at low concentrations, increase significantly lower in both serum-free media), the “changes in GSH” value is on record as “increase in GSH”.
With `Cc1c2oc3c(C)ccc(C(=O)N[C@@H]4C(=O)N[C@H](C(C)C)C(=O)N5CCC[C@H]5C(=O)N(C)CC(=O)N(C)[C@@H](C(C)C)C(=O)O[C@@H]4C)c3nc-2c(C(=O)N[C@@H]2C(=O)N[C@H](C(C)C)C(=O)N3CCC[C@H]3C(=O)N(C)CC(=O)N(C)[C@@H](C(C)C)C(=O)O[C@@H]2C)c(N)c1=O` [actinomycin D, Actinomycin D] (I: T[dV]P[Sar][NMeV] / II: T[dV]P[Sar][NMeV]; ester I:1-I:C, II:1-II:C; linker I:N-II:N via Actinocin(9to1)), the “fold change (response, Figure 7C)” value came to 11.3 in [3] (Advanced DMEM/F12), 6.6 in [3] (TCM) and 3.1 in data set [3] (standard medium). In addition, the “RNA Pol II levels” value in data set [4] (setting [11]) is on record as “significant decrease”. Further, the EIF4B levels result in [5] was “significant decrease”.
With `CO/C1=C\C(C)=C\[C@@H](C)[C@@H](O)[C@@H](C)C/C(C)=C/C=C/[C@H](OC)[C@@H]([C@@H](C)[C@@H](O)[C@H](C)[C@@]2(O)C[C@@H](O)[C@H](C)[C@@H](C(C)C)O2)OC1=O` [bafilomycin, Bafilomycin A1], the LC3B levels result in data set [1] (similar response in all culture conditions) is “strong increase in LC3B levels”.
For `CC(=O)N(O)CCCCCNC(=O)CCC(=O)N(O)CCCCCNC(=O)CCC(=O)N(O)CCCCCN` [deferoxamine, Deferoxamin Mesylat], the PARP level result is recorded as “not observed” in data set [3] (serum-free media) and “increased PARP level” in data set [3] (standard medium). The HIF-1-alpha levels result is “no significant increase in HIF-1-alpha levels” in data set [9] (Advanced DMEM/F12, treated vs. untreated cells); “elevated HIF-1-alpha levels” in data set [9] (TCM); “elevated HIF-1-alpha levels” in data set [9] (standard medium).
As to `COC1=C2C[C@@H](C)C[C@H](OC)[C@H](O)[C@@H](C)/C=C(\C)[C@H](OC(N)=O)[C@@H](OC)/C=C\C=C(/C)C(=O)NC(=CC1=O)C2=O` [geldanamycin, Geldanamycin], the “fold change (response, Figure 7B)” value in data set [2] (Advanced DMEM/F12) is 20.6; in [2] (TCM) it was 8.7; in data set [2] (standard medium), 7.4.
